Laboratory results from PubChem BioAssay AID743377 (Vanderbilt Specialized Chemistry Center, 2014).
The source made the active and inactive calls. No rule for the calls is given here.

Target: D(2) dopamine receptor (Homo sapiens) (UniProt P14416)
Test: D2L dopamine receptor antagonism, confirmation, counter-screen for D4 antagonist project, cell-based, D2L isoform, human (AID 743377)
Conditions: D2L-expressing cells, antagonist counterscreen, functional read-out

Sequence of D(2) dopamine receptor (Homo sapiens) (P14416 whole entry, looked up, canonical isoform): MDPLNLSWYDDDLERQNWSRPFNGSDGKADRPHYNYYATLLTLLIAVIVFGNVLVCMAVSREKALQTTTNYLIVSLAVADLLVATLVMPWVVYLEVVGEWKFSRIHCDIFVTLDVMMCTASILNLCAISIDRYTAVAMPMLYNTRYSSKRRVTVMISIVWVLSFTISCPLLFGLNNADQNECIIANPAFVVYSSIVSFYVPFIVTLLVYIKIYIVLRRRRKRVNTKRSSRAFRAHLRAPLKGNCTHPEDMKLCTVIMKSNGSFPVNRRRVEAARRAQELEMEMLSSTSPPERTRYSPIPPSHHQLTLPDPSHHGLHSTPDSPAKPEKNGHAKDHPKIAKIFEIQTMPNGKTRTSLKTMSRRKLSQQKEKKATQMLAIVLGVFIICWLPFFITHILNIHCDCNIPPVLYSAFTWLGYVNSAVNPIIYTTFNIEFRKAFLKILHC

For Clc1ccc(CN2CCO[C@H](CCc3ccccc3)C2)cc1, the IC50 was > 20 µM (inactive).
